Consider one molecule from patent US20040209843A1, “Aqueous cilostazol preparation for injection” (priority 2001, published 2004).

Structures are written as SMILES. Values after ≈ are worked out from the molar mass of the structure shown.

The conditions of series [1]: ordinary temperatures; cited from earlier work.
Series [2] can be described thus: saturated concentration (solubility) of cilostazol in aqueous cyclodextrin solutions, determined by HPLC. Type of series: physicochemical. The settings on record: aqueous with cosolvent or surfactant or cyclodextrin, thermodynamic from solid; excess cilostazol in water for injection with the row's cyclodextrin compound at the row's concentration (g/L); shaken at 60° C. for 24 hours, membrane filtered, HPLC of filtrate. As for the experimental part: Each of the following cyclodextrin compounds was dissolved in water for injection. To this, an excess amount of cilostazol was added and the mixture was shaken at 60° C. for 24 hours. Then, the mixture was filtered through a membrane filter to remove insoluble materials and the amount of cilostazol in the filtrate was determined by the method of HPLC (High Performance Liquid Chromatography) to calculate the saturated concentration (solubility). Cyclodextrin compounds used were alpha-cyclodextrin (Trade Name: Celdex A-100, manufactured by NIHON SHOKUHIN KAKO Co. Ltd., beta-cyclodextrin (Trade Name: Celdex B-100, manufactured by NIHON SHOKUHIN KAKO Co. Ltd.), gamma-cyclodextrin (Trade Name: Celdex C-100, manufactured by NIHON SHOKUHIN KAKO Co. Ltd.), 6-O-alpha-maltosyl-beta-cyclodextrin (manufactured by Ensuiko Sugar Refining Co., Ltd), 2-hydroxypropyl-beta-cyclodextrin (Trade Name: Celdex HP-beta-CD, manufactured by NIHON SHOKUHIN KAKO Co. Ltd), hepta-substituted sulfobutylether-beta-cyclodextrin sodium salt (hereinafter abbreviated as SBE7-beta-CD)(Trade Name: Captisol, manufactured by CyDex Inc.).
Also, as a Reference Example, the solubility of cilostazol without addition of cyclodextrin compounds was determined similarly.

For orientation: solubility means the concentration that dissolves in the medium under given conditions. For `O=C1CCc2cc(OCCCCc3nnnn3C3CCCCC3)ccc2N1` [Cilostazol, 6-[4-(1-cyclohexyl-1,2,3,4-Tetrazol-5-yl)butoxy]-3,4-dihydrocarbostyril], the solubility in water entry in series [1] is reported as “about 3 μg/ml”. The same molecule displayed a solubility at 24 h in series [2] of 3.5 µg/mL (≈ 9.47 µM).
